Results taken from patent US20260232709A1, “COMPOSITION COMPRISING MELOSIDE FOR ALLEVIATING HAIR LOSS AND IMPROVING HAIR GROWTH” (MORECHEM CO., LTD., priority 2024, published 2026).
“Also recorded” adds a separate entry of the source.

Columns and labels:
[1] = tested on: human outer root sheath cells (ORS); assay: Cytotoxicity / growth-proliferation of outer root sheath cells (CCK-8); assay type: cell-based; settings: 10, 30, 50, 100 ppm, 1 day, CCK-8, 450 nm, FIG. 2
Experimental: Human Hair Outer Root Sheath Cells (ORS), used in the test examples described below, were cultured in culture plates coated with Poly-L-Lysine, using Mesenchymal Stem Cell Medium (MSCM, ScienCell) supplemented with 5% Fetal Bovine Serum (FBS, ScienCell), 1% Mesenchymal stem cell growth supplement (MSCGS, ScienCell), and antibiotics (Penicillin-Streptomycin, ScienCell) as the culture medium, in an incubator at 37° C., 5% CO2, and humid conditions.
(§1) Specifically, after treating human dermal papilla cells (HDPC) or human outer root sheath cells (ORS) with Meloside A or Meloside L at concentrations of 10, 30, 50, and 100 ppm for 1 day, CCK-8 (Cell Counting Kit-8, Dojindo, EU) reagent was added to the treated HDPC according to the manufacturer's protocol. Absorbance was then measured at a wavelength of 450 nm using a microplate reader (BioTeK, USA), and the extent of HDPC growth/proliferation by Meloside treatment was compared and confirmed against the negative control group (treated with DMEM instead of Meloside A or L).

[2] = target: T1, androgen receptor (Homo sapiens, UniProt P10275); assay: Androgen receptor nuclear translocation in dermal papilla cells (EGFP-AR, fluorescence microscopy); assay type: cell-based; settings: DHT co-treated with 100 ppm, 24 hours, FIGS. 5 and 6
T1 construct: host or cells: dermal papilla cells
T1 sequence (P10275 1-920): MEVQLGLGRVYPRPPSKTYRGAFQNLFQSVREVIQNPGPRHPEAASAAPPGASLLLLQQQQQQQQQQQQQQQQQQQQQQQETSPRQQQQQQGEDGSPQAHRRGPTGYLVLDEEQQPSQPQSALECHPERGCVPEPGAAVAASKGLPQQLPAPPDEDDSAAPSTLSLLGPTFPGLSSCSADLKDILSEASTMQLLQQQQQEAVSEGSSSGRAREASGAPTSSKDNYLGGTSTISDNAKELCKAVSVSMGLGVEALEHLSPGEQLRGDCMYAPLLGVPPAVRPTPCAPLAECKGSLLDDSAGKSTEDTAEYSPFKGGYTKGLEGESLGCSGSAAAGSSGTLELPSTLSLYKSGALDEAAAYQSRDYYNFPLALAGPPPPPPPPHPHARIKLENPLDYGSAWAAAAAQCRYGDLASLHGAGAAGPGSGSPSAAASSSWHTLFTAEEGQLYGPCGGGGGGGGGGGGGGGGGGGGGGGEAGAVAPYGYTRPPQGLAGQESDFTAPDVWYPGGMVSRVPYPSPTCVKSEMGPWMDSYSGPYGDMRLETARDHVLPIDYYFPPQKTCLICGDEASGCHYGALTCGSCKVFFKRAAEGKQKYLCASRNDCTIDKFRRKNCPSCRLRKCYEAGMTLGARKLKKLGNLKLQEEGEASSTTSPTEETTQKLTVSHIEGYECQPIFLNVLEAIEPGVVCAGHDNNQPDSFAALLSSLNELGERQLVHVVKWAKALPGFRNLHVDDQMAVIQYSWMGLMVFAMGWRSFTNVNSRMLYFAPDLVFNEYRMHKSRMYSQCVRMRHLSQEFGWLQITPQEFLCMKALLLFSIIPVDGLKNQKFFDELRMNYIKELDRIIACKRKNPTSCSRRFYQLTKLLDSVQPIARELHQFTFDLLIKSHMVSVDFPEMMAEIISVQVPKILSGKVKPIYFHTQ
Experimental: To confirm the involvement of androgen receptors in hair loss-related gene transcription, recombinant plasmid EGFP-AR (Addgene) was used, and the extent of androgen receptor nuclear translocation in dermal papilla cells was measured using a cellular injection method.
For the untreated group, only DHT was treated, and for the negative control group, neither DHT nor the sample was treated. In the experimental group, DHT and Meloside A or L at 100 ppm were co-treated, and after 24 hours, measurements were taken using a fluorescence microscope at Ex 485 nm and Em 535 nm. The results observed with the fluorescence microscope are shown in FIG. 5, and the number of cells with translocated androgen receptors in the treated groups, based on the untreated group, is shown in FIG. 6.

[3] = tested on: human dermal papilla cells (HDPC); assay: Cytotoxicity / growth-proliferation of dermal papilla cells (CCK-8); assay type: cell-based; settings: 10, 30, 50, 100 ppm, 1 day, CCK-8, 450 nm, FIG. 1
Experimental: Human hair dermal papilla cells (HDPC), used in the test examples described below, were cultured in Dulbecco's Modified Eagle Medium (DMEM, WELGENE) supplemented with 10% Fetal Bovine Serum (FBS, WELGENE) and 1% antibiotics (Penicillin-Streptomycin, WELGENE) as the culture medium, in an incubator at 37° C., 5% CO2, and humid conditions.
as §1

[4] = tested on: Vascular Endothelial Growth Factor (VEGF); assay: VEGF expression in HDPC supernatant (ELISA); assay type: cell-based, human; settings: 30 or 100 ppm, 1 day, FIG. 8
Experimental: HDPC were treated with Meloside A or L at concentrations of 30 or 100 ppm, respectively, for 1 day to obtain the cell supernatant. For comparison, HDPC that were not treated with either Meloside A or L were used as the negative control group, and HDPC treated with 100 μM Minoxidil were used as the positive control group.
The increase or decrease in VEGF expression level in the obtained cell supernatant was confirmed through an Enzyme-Linked Immunosorbent Assay (ELISA) method, and the results are shown in FIG. 8.

SMILES	cell growth/proliferation (cytotoxicity) of ORS vs negative control [1]	DHT-induced translocation of androgen receptors (number of cells with translocated AR) [2]	cell growth/proliferation (cytotoxicity) of HDPC vs negative control [3]	VEGF expression level [4]
O=c1cc(-c2ccc(O)c(O)c2)oc2cc(O)c([C@@H]3O[C@H](CO)[C@@H](O)[C@H](O)[C@H]3O[C@@H]3O[C@H](CO)[C@@H](O)[C@H](O)[C@H]3O)c(O)c12 [Meloside L, isoorientin 2″-O-glucoside]	comparable levels of cell growth/proliferation to the negative control group	inhibited	comparable levels of cell growth/proliferation to the negative control group	increase in VEGF expression
O=c1cc(-c2ccc(O)cc2)oc2cc(O)c([C@@H]3O[C@H](CO)[C@@H](O)[C@H](O)[C@H]3O[C@@H]3O[C@H](CO)[C@@H](O)[C@H](O)[C@H]3O)c(O)c12 [Meloside A, isovitexin 2″-O-glucoside]	comparable levels of cell growth/proliferation to the negative control group	inhibited; also recorded: superior to that of Meloside L treatment	comparable levels of cell growth/proliferation to the negative control group	increase in VEGF expression; also recorded: superior to that of Meloside L
